Test results as given in patent US20030225007A1, “Sulfonamide derivatives of 3-substituted imidazol[1,2-d]-1,2,4-thiadiazoles and 3-substituted-[1,2,4] thiadiazolo[4,5-a] benzimidazole as inhibitors of fibrin cross-linking and transglutaminases” (Apotex Inc., priority 2002, published 2003).

Biological target: T1, Factor XIIIa (activated FXIII) (Homo sapiens, UniProt P00488)
T1 construct: purchased Enzyme Research Laboratories, Ltd
T1 sequence (P00488 39-732 limits assumed): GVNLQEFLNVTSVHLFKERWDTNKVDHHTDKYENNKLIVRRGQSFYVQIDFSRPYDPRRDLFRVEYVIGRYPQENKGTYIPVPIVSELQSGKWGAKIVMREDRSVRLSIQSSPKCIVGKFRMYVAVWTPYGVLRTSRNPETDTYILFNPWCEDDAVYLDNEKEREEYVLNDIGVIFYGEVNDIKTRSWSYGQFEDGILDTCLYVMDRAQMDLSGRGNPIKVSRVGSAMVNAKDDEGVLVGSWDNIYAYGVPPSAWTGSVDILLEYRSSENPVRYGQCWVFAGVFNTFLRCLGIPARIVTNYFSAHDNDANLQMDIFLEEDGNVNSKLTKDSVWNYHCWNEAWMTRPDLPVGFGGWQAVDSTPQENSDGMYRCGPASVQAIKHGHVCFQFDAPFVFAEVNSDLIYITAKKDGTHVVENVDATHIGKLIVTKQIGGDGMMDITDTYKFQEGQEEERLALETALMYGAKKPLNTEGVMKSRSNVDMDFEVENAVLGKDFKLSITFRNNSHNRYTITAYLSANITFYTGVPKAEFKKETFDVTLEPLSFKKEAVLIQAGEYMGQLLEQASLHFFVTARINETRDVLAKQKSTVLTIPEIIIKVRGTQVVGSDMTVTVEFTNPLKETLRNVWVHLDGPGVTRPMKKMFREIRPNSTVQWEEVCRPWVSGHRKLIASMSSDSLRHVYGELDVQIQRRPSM
Assay: Inactivation of purified Factor XIIIa (monodansylcadaverine incorporation into dimethylcasein, fluorescence)
Format: biochemical
Conditions: purified Factor XIIIa; method of Kitz and Wilson; read-out: Second order rate constant for inactivation
Protocol: FXIII (0.5 mg/mL, Enzyme Research Laboratories, Ltd.) in 50 mM Tris-HCl pH 7.5 containing 100 mM NaCl, 40 mM CaCl2, 1 mM EDTA and 0.1% poly(ethylene glycol) (app. MW=8000) was activated by incubation with 10 NIH units/mL of human thrombin (Calbiochem) at 37° C. for 20 min. Thrombin was quenched with 20 NIH units/mL of hirudin from Leech (Sigma).
Inhibitor solution in DMSO (14 μL) was added to 120 μL of 250 mM Tris-Cl pH 7.5 containing 40 mM CaCl2 and 1 mM EDTA and the solution was incubated at 37° C. for two minutes. Activated FXIII (5 μL, 0.5 mg/mL) was added and the mixture was incubated at 37° C. for 5 min.
An assay mixture composed of 50 mM Tris-Cl pH 8.0, 10 mM CaCl2, 1 mM EDTA, 0.1% poly(ethylene glycol) (app. MW=1000) and 20 μM monodansylcadaverine was prepared in a spectrofluorometric cell in a final volume of 2880 μL. Dimethylcasein (8 μL, 1% in 50 mM sodium phosphate pH 7.5) was added and the solution was incubated at 37° C. for a few minutes. To assay the residual enzyme activity, 120 μL of the solution containing the enzyme and the inhibitor was transferred to the assay mixture. The covalent incorporation of monodansylcadaverine into casein was monitored by an increase in fluorescence at λexc=360 nm and λem=500 nm as previously described (Curtis, C. G.; Lorand, L. Methods Enzymol. 1976, 45, 177-191). To determine uninhibited enzyme activity, DMSO was used in place of inhibitor solution in the above assay. IC50 were determined by plotting the percent of remaining enzyme activity against logarithm of inhibitor concentration. IC50 is defined here as an inhibitor concentration resulting in 50% enzyme inactivation after 5-min incubation of the enzyme with the inhibitor in the absence of the substrate. Second order rate constants for inactivation were determined using method described by Kitz and Wilson (Kitz, R.; Wilson, I. J. Biol. Chem. 1962, 237, 3245).

kinact/KI	Compound
13000 M⁻¹ s⁻¹	O=S(=O)(NCCCCCCNc1nsc2nccn12)c1ccc(Br)cc1Br [2,4-dibromo-N-[6-(imidazo[1,2-d][1,2,4]thiadiazol-3-ylamino)hexyl]benzenesulfonamide]

Same assay, conditions: purified activated FXIII; 50% enzyme inactivation after 5-min incubation with inhibitor at 37° C. in the absence of substrate; read-out: FXIIIa (IC50 in μM)

Compound	IC50
4-benzyl-{N^ε-imidazo[1,2-d][1,2,4]thiadiazol- 3-yl-N^α-[(4- methylphenyl)sulfonyl]lysyl}piperidine	5.6 µM
O=C(O)CN(CCCCCCNc1nsc2nccn12)S(=O)(=O)c1cccc2ccccc12 [1 / OH / 1-naphthyl, N-[6-(imidazo[1,2-d][1,2,4]thiadiazol-3-ylamino)hexyl]-N-(1-naphthylsulfonyl)glycine]	6.8 µM
NC(=O)c1ccccc1S(=O)(=O)NCCCCCCNc1nsc2nccn12 [2-CONH2-Ph, 2-({[6-(imidazo[1,2-d][1,2,4]thiadiazol-3-ylamino)hexyl]amino}sulfonyl)benzamide]	3 µM
CNC(=O)c1ccccc1S(=O)(=O)NCCCCCCNc1nsc2nccn12 [2-CONHMe-Ph, 2-({[6-(imidazo[1,2-d][1,2,4]thiadiazol-3-ylamino)hexyl]amino}sulfonyl)-N-methylbenzamide]	13.8 µM
O=C(O)c1ccccc1S(=O)(=O)NCCCCCCNc1nsc2nccn12 [2-COOH-Ph, 2-carboxy-N-[6-(imidazo[1,2-d][1,2,4]thiadiazol-3-ylamino)hexyl]benzenesulfonamide]	6.8 µM
COC(=O)c1ccccc1S(=O)(=O)NCCCCCCNc1nsc2nccn12 [2-COOMe-Ph, N-[6-(imidazo[1,2-d][1,2,4]thiadiazol-3-ylamino)hexyl]2-methoxycarbonylbenzenesulfonamide]	3.2 µM
O=S(=O)(NCCCCCCNc1nsc2nccn12)c1ccc(F)cc1Cl [2-Cl-4-F-Ph, 2-chloro-4-fluoro-N-[6-(imidazo[1,2-d][1,2,4]thiadiazol-3-ylamino)hexyl]benzenesulfonamide]	0.6 µM
O=S(=O)(NCCCCCCNc1nsc2nccn12)c1c(F)ccc(Br)c1F [2-F-3-Br-6-F-Ph, 3-bromo-2,6-difluoro-N-[6-(imidazol[1,2-d][1,2,4]thiadiazol-3-ylamino)hexyl]benzenesulfonamide]	2.1 µM
COc1cc(C)c(S(=O)(=O)NCCCCCCNc2nsc3nccn23)c(C)c1C [2-Me-3-Me-4-OMe-6-Me-Ph, N-[6-(imidazo[1,2-d][1,2,4]thiadiazol-3-ylamino)hexyl]-4-methoxy-2,3,6-trimethylbenzenesulfonamide]	14 µM
COc1ccc(OC)c(S(=O)(=O)NCCCCCCNc2nsc3nccn23)c1 [2-OMe-5-Ome-Ph, 2,5-dimethoxy-N-[6-(imidazo[1,2-d][1,2,4]thiadiazol-3-ylamino)hexyl]benzenesulfonamide]	> 5 µM
O=S(=O)(NCCCCCCNc1nsc2nccn12)c1ccc(Br)cc1 [4-Br-Ph, 4-bromo-N-[6-(imidazo[1,2-d][1,2,4]thiadiazol-3-ylamino)hexyl]benzenesulfonamide]	0.93 µM
O=C(O)c1ccc(S(=O)(=O)NCCCCCCNc2nsc3nccn23)cc1 [4-COOH-Ph, 4-carboxy-N-[6-(imidazo[1,2-d][1,2,4]thiadiazol-3-ylamino)hexyl]benzenesulfonamide]	11.4 µM

Continued, values first:

IC50	Compound
6 µM	NC(=O)CN(CCCCCCNc1nsc2nccn12)S(=O)(=O)c1cccc2ccccc12 [1 / NH2 / 1-naphthyl, N^2-[6-(imidazo[1,2-d][1,2,4]thiadiazol-3-ylamino)hexyl]-N^2-(1-naphthylsulfonyl)glycinamide]
7.4 µM	CCOC(=O)CN(CCCCCCNc1nsc2nccn12)S(=O)(=O)c1cccc2ccccc12 [1 / OEt / 1-naphthyl, Ethyl N-[6-(imidazo[1,2-d][1,2,4]thiadiazol-3-ylamino)hexyl]-N-(1-naphthylsulfonyl) glycinate]
8.9 µM	NC(=O)CCN(CCCCCCNc1nsc2nccn12)S(=O)(=O)c1ccc(F)cc1F [2 / NH2 / 2-F-4-F-Ph, N^3-[(2,4-difluorophenyl)sulfonyl]-N^3-[6-(imidazo[1,2-d][1,2,4]thiadiazol-3-ylamino)hexyl]-β-alaninamide]
6.8 µM	CCOC(=O)CCN(CCCCCCNc1nsc2nccn12)S(=O)(=O)c1ccc(F)cc1F [2 / OEt / 2-F-4-F-Ph, Ethyl N-[(2,4-difluorophenyl)sulfonyl]-N-[6-(imidazo[1,2-d][1,2,4]thiadiazol-3-ylamino)hexyl]-β-alaninate]
1.3 µM	Cc1cc(C)c(S(=O)(=O)NCCCCCCNc2nsc3nccn23)c(C)c1 [2,4,6-TriMe-Ph, N-[6-(imidazo[1,2-d][1,2,4]thiadiazol-3-ylamino)hexyl]-2,4,6-trimethylbenzenesulfonamide]
2.7 µM	N#Cc1ccccc1S(=O)(=O)NCCCCCCNc1nsc2nccn12 [2-CN-Ph, 2-cyano-N-[6-(imidazo[1,2-d][1,2,4]thiadiazol-3-ylamino)hexyl]benzenesulfonamide]
0.95 µM	Cc1cc(S(=O)(=O)NCCCCCCNc2nsc3nccn23)c(C)cc1Cl [2-Me-4-C1-5-Me-Ph, 4-chloro-2,5-dimethyl-N-[6-(imidazol[1,2-d][1,2,4]thiadiazol-3-ylamino)hexyl]benzenesulfonamide]
0.77 µM	O=[N+]([O-])c1cc(C(F)(F)F)ccc1S(=O)(=O)NCCCCCCNc1nsc2nccn12 [2-NO2-4-CF3-Ph, N-[6-(imidazo[1,2-d][1,2,4]thiadiazol-3-ylamino)hexyl]-2-nitro-4-trifluorobenzenesulfonamide]
0.42 µM	O=S(=O)(NCCCCCCNc1nsc2nccn12)c1ccc(Br)cc1OC(F)(F)F [2-OCF3-4-Br, 4-bromo-N-[6-(imidazo[1,2-d][1,2,4]thiadiazol-3-ylamino)hexyl]-2-(trifluoromethoxy)benzenesulfonamide]
24 µM	COc1cc(C)ccc1S(=O)(=O)NCCCCCCNc1nsc2nccn12 [2-OMe-4-Me-Ph, N-[6-(imidazol[1,2-d][1,2,4]thiadiazol-3-ylamino)hexyl]-2-methoxy-4-methylbenzenesulfonamide]
3.7 µM	COc1ccc(Br)cc1S(=O)(=O)NCCCCCCNc1nsc2nccn12 [2-OMe-5-Br-Ph, 5-bromo--N-[6-(imidazo[1,2-d][1,2,4]thiadiazol-3-ylamino)hexyl]-2-methoxybenzenesulfonamide]
1.3 µM	O=S(=O)(NCCCCCCNc1nsc2nccn12)c1ccc2ccccc2c1 [2-naphthyl, N-[6-(imidazo[1,2-d][1,2,4]thiadiazol-3-ylamino)hexyl]naphthalene-2-sulfonamide]
8.6 µM	NC(=O)CCCN(CCCCCCNc1nsc2nccn12)S(=O)(=O)c1cccc2ccccc12 [3 / NH2 / 1-naphthyl, 4-[[6-(imidazo[1,2-d][1,2,4]thiadiazol-3-ylamino)hexyl](1-naphthylsulfonyl)amino]butanamide]
4.7 µM	O=S(=O)(NCCCCCCNc1nsc2nccn12)c1cccc(C(F)(F)F)c1 [3-CF3-Ph, N-[6-(imidazo[1,2-d][1,2,4]thiadiazol-3-ylamino)hexyl]-3-trifluoromethylbenzenesulfonamide]
13.7 µM	O=C(O)c1cccc(S(=O)(=O)NCCCCCCNc2nsc3nccn23)c1 [3-COOH-Ph, 3-carboxy-N-[6-(imidazo[1,2-d][1,2,4]thiadiazol-3-ylamino)hexyl]benzenesulfonamide]
1.6 µM	N#Cc1ccc(S(=O)(=O)NCCCCCCNc2nsc3nccn23)cc1 [4-CN-Ph, 4-cyano-N-[6-(imidazo[1,2-d][1,2,4]thiadiazol-3-ylamino)hexyl]benzenesulfonamide]
1.4 µM	COc1ccc(S(=O)(=O)NCCCCCCNc2nsc3nccn23)cc1 [4-OMe-Ph, N-[6-(imidazo[1,2-d][1,2,4]thiadiazol-3-ylamino)hexyl]-4-methoxybenzenesulfonamide]
